Test results published in patent US20240216464A1, “IL1RA DERIVED PEPTIDES FOR TREATMENT OF DIABETIC NEPHROPATHY” (SERODUS APS, priority 2021, published 2024).
Entries after “also recorded” stand apart in the source; their conditions may differ. Ends that are not written are not given here.

How the values were obtained:
[1] = tested on: Renin AAV Uni-nephrectomized db/db (Renin AAV UNx) mice; experiment: Renin AAV uni-nephrectomized db/db mouse model of diabetic nephropathy, 77 days treatment; assay type: in vivo
Description: 56 female mice (BKS.Cg-Dock7m+/+ Lepradb/db BLKS, 5 weeks of age) were transferred to the Gubra Research animal unit. The animals were group housed until uni-nephrectomies, then single housed. Throughout the habituation and study period the animals were in a light-, temperature- and humidity-controlled room with free access to food and water. All animal experiments were conducted in accordance with Gubra bioethical guidelines, which are fully compliant to internationally accepted principles for the care and use of laboratory animals.
Animals were terminated on day 77; blood was taken for later analysis, body weight was recorded, and spot urine was collected.
SER140 was provided by Phlogo ApS, Copenhagen, Denmark (10 mg/ml miliQ water diluted to the different dose formulations). SER140 is a dendrimer composed of four monomeric peptides each with the sequence SGRKSSKMQA (SEQ ID NO:1), and coupled to a lysine backbone. Vehicle was miliQ:PBS 1:5.
After one week of acclimatization the mice received an IV injection of Renin adenosin-associated virus (AAV). […]
All blood samples were taken from the mice tail in heparinized tubes, plasma was separated and stored at minus 80 C until analysis. Non-fasting BG (blood glucose) was measured using BIOSEN c-line glucose meter (EKF-diagnostics, Germany), blood for HbA1c analysis was immediately suspended in Hemolyzing Reagent and stored until analysis using autoanalyzer Cobas C-111 with commercial kit (Roche Diagnostics, Germany), plasma urea using commercial kits (Roche Diagnostics).
Urine samples were stored at minus 80 C until analysis. Urine for measurement of albumin and creatinine were centrifuged at 2000 g for 2 min prior to analysis Urine albumin was measure using a commercial ELISA kit (Bethyl Laboratories, Inc.), according to the manufacturer's instructions, and urine creatinine was measured using a commercial kit (Roche Diagnostics) on the Cobas c 501 autoanalyzer, according to the manufacturer's instructions. Urinary KIM-1 was measured using a commercial ELISA kit (R&D Systems), according to the manufacturer's instructions.

IL-1R1 = target: T1, IL-1R1 (Homo sapiens, UniProt P14778); conditions: cited from earlier work
T1 sequence (P14778 18-569): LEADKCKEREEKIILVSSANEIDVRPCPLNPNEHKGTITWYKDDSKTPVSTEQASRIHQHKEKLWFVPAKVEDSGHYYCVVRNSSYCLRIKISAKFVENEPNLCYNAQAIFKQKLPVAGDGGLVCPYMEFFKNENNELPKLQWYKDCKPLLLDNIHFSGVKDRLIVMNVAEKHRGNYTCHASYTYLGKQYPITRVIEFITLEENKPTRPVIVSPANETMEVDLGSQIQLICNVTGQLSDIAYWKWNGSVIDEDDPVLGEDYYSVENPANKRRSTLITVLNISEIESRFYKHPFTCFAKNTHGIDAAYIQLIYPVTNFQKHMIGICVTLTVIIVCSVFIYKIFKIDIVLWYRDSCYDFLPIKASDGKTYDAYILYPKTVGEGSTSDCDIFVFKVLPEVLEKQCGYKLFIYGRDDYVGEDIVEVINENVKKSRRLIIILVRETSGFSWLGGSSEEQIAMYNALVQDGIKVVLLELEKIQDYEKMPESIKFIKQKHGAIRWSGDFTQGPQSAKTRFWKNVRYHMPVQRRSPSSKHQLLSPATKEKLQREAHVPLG

macrophages = conditions: downstream of IL-1 receptor activation; cited from earlier work

Substance | urinary albumin corrected for creatinine (ACR) ([1]; spot urine, day 77, 3, 10 and 20 mg/kg SER140 subcutaneously once daily vs vehicle, FIG. 1 (medians)) | urinary KIM-1 corrected for creatinine (KIM-1/CR) ([1]; spot urine, day 77, 3, 10 and 20 mg/kg SER140 subcutaneously once daily vs vehicle, FIG. 2 (means)) | HbA1c ([1]; vehicle vs SER140 treatment) | receptor binding of IL-1p (IL-1R1) | macrophages liberation / secretion of TNFα (macrophages)
SER140: dendrimer composed of four monomeric peptides each with the sequence SGRKSSKMQA (SEQ ID NO:1), coupled to a lysine backbone (also: tetrameric dendrimer: four copies coupled to a lysine backbone) | decreased; also recorded: significantly reduced | decreased; also recorded: significantly reduced | no changes | inhibit | reduce
SGRKSSKMQA (Variant of fragment of IL1RA) [SEQ ID NO:1, 10-amino acid peptide derived from IL1RA] |  |  |  |  | inhibit
